Laboratory results taken from article PMC6631993, “Investigation of the Binding Affinity of a Broad Array of L-Fucosides with Six Fucose-Specific Lectins of Bacterial and Fungal Origin” (Molecules, 2019).
Where two headings read alike, the source gives them in different places.

Assays:
BC2L-C = target: T1, BC2L-C (Burkholderia cenocepacia, UniProt B4EH86); test: hemagglutination inhibition, microscope detection; assay type: biochemical; details: human 0+ papain-treated red blood cells, 20 mM Tris/HCl, 150 mM NaCl, 5 mM CaCl2, pH 7.5, room temperature, lectin 0.1 mg/mL, semi-quantitative
T1 construct: gene BCAM0185; recombinant in E. coli; D-mannose-agarose purified; N-terminal domain (fucose site) is a trimer
Description: hemagglutination inhibition, microscope detection on BC2L-C

PA-IIL (LecB) = target: T2, PA-IIL (LecB) (Pseudomonas aeruginosa, UniProt Q9HYN5); test: hemagglutination inhibition, microscope detection; assay type: biochemical; details: 20 mM Tris/HCl, 150 mM NaCl, 5 mM CaCl2, pH 7.5, room temperature, lectin 1.25 mg/mL
T2 construct: recombinant in E. coli, D-mannose-agarose purified; homotetramer, two calcium ions per site
Description: hemagglutination inhibition, microscope detection on PA-IIL (LecB)

RSL = RSL (Ralstonia pseudosolanacearum, UniProt Q8XXK6); details: PBS, room temperature, lectin 0.05 mg/mL
AAL = target: T3, AAL (Aleuria aurantia, UniProt P18891); test: hemagglutination inhibition, microscope detection; assay type: biochemical; details: PBS, room temperature, lectin 0.05 mg/mL
T3 construct: purchased freeze-dried (Vector Laboratories); dimer
T3 sequence (P18891 2-313): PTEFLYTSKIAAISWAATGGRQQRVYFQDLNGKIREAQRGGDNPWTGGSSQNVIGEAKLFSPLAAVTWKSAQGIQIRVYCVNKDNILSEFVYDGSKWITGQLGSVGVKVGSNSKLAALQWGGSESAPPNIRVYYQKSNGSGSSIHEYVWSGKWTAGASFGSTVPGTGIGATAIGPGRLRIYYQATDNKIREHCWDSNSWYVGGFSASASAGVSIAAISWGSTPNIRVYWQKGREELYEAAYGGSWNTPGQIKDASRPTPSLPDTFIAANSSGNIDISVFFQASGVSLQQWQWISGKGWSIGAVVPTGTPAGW
Description: hemagglutination inhibition, microscope detection on AAL

AOL = target: T4, AOL (Aspergillus oryzae, UniProt Q2UNX8); test: hemagglutination inhibition, microscope detection; assay type: biochemical; details: PBS, room temperature, lectin 0.05 mg/mL
T4 construct: gene fleA; purchased freeze-dried (TCI); dimer
T4 sequence (Q2UNX8 1-311): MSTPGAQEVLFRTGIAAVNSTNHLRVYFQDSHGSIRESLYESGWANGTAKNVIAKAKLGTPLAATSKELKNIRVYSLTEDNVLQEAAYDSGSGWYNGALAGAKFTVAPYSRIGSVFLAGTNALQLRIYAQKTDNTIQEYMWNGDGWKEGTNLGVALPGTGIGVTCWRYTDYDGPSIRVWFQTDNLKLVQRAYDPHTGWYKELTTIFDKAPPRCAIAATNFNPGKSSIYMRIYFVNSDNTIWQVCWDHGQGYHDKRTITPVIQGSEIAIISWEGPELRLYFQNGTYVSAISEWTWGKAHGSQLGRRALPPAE
Description: hemagglutination inhibition, microscope detection on AOL

AFL = target: T5, AFL (Aspergillus fumigatus, UniProt Q4WW81); test: hemagglutination inhibition, microscope detection; assay type: biochemical; details: PBS; room temperature; lectin 0.05 mg/mL; valency 1
T5 construct: gene fleA; dimer of six-bladed beta-propellers
Description: hemagglutination inhibition, microscope detection on AFL

T1 sequence (B4EH86 entry or part of it): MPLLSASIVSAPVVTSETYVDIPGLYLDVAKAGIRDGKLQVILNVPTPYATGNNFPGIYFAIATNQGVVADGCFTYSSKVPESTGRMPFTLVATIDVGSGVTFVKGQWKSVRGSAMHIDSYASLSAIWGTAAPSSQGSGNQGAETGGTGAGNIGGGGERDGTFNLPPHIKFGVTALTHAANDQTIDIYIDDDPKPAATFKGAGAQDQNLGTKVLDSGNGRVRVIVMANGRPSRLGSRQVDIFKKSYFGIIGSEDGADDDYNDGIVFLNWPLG
T2 sequence (Q9HYN5 entry or part of it): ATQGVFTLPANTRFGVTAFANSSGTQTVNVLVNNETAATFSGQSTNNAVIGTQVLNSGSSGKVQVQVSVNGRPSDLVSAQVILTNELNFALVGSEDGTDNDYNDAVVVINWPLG
T5 sequence (Q4WW81 whole entry): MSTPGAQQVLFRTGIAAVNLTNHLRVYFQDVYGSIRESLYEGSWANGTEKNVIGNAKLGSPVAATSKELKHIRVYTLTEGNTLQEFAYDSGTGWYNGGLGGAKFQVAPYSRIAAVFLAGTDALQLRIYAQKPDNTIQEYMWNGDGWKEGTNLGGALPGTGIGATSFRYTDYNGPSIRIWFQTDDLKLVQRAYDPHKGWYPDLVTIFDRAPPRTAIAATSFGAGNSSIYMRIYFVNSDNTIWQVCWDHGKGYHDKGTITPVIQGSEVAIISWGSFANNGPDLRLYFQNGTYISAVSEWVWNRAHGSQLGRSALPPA

In the case of `C[C@@H]1O[C@@H](SCCS(=O)(=O)O)[C@@H](O)[C@H](O)[C@@H]1O` [compound 22, Compound 22], the “RSL / Potency” value (BC2L-C; valency 4) is reported as 4 fold vs L-fucose.

`C[C@@H]1O[C@@H](SCCO)[C@@H](O)[C@H](O)[C@@H]1O` [compound 21, Compound 21] was tested, and the “RSL / Potency” value (PA-IIL (LecB); valency 1) was 4 fold vs L-fucose, the “RSL / Potency” value (RSL; valency 1) was 4 fold vs L-fucose and the “AFL / Potency” value (AAL; valency 1) was 2 fold vs L-fucose. The “RSL / Potency” value (AOL; valency 1) was 4 fold vs L-fucose, the “RSL / Potency” value (BC2L-C; valency 4 buffer and lectin concentration, valency 1) was 4 fold vs L-fucose and the “AFL / Potency” value (AFL) was 2 fold vs L-fucose.

`C#CCO[C@@H]1O[C@@H](C)[C@@H](O)[C@@H](O)[C@@H]1O` [compound 11, Compound 11] was tested, and the “AFL / Potency” value (PA-IIL (LecB); valency 1) was 4 fold vs L-fucose, the “RSL / Potency” value (RSL; valency 1) was 8 fold vs L-fucose and the “AFL / Potency” value (AAL; valency 1) was 4 fold vs L-fucose. The “AFL / Potency” value (AOL; valency 1) was 4 fold vs L-fucose and the “AFL / Potency” value (AFL) was 4 fold vs L-fucose.

`C[C@@H]1O[C@@H](OCc2cn(CCOCCOCCOCCn3cc(CO[C@@H]4O[C@@H](C)[C@@H](O)[C@@H](O)[C@@H]4O)nn3)nn2)[C@@H](O)[C@H](O)[C@@H]1O` [compound 14, Compound 14] was tested, and the “RSL / Potency” value (RSL; valency 2) was 128 fold vs L-fucose.

In the case of `C[C@@H]1O[C@@H](OCc2cn(CCOCCOCCOCCn3cc(COCC(COCc4cn(CCOCCOCCOCCn5cc(CO[C@@H]6O[C@@H](C)[C@@H](O)[C@@H](O)[C@@H]6O)nn5)nn4)(COCc4cn(CCOCCOCCOCCn5cc(CO[C@@H]6O[C@@H](C)[C@@H](O)[C@@H](O)[C@@H]6O)nn5)nn4)COCc4cn(CCOCCOCCOCCn5cc(CO[C@@H]6O[C@@H](C)[C@@H](O)[C@@H](O)[C@@H]6O)nn5)nn4)nn3)nn2)[C@@H](O)[C@H](O)[C@@H]1O` [compound 2, Compound 2], the “AFL / β^#” value (PA-IIL (LecB); valency 4) is reported as 32 fold vs L-fucose, the “RSL / Potency” value (RSL; valency 4) is reported as 1024 fold vs L-fucose and the “AFL / Potency” value (AAL; valency 4) is reported as 128 fold vs L-fucose. For the same compound, the “RSL / β^#” value (AOL; 0+ papain-treated red blood cells, semi-quantitative, valency 4) was 256 fold vs L-fucose and the “BC2L-C / Potency” value (BC2L-C; valency 4) was 16 fold vs L-fucose.

In the case of `C[C@@H]1O[C@@H](OCc2cn(CCN=[N+]=[N-])nn2)[C@@H](O)[C@H](O)[C@@H]1O` [compound 12, Compound 12], the “RSL / Potency” value (RSL; valency 1) is reported as 32 fold vs L-fucose.
